Columns and labels:
IL582 = assay: Culture with hemin and agitation, different strains (Example 4); assay type: cell-based, L. lactis; details: strain IL582, hemin 10 μg/ml and agitation, M17 1% glucose, 24 h
Procedure: (§1) Bacteria [MG1363 and 7 strains (IL1403, IL582, IL801, IL896, Z105, Z106, Z191) representative of L. lactis subgroups [TAILLEZ et al., System. Appl. Microbiol., 21, 530-538, (1998)] are cultured in M17 medium (1% glucose) inoculated (1/1000 dilution) with a saturated starter culture previously grown at 30° C. for 24 h. Hemin at a final concentration of 10 μg/ml is added to the inoculated medium before aerating the cultures by shaking (minimum 220 rpm). Control cultures are grown in parallel with no hemin in the medium, and no shaking. […]

Z105 = assay: as above; assay type: cell-based, L. lactis; details: strain Z105, hemin 10 μg/ml and agitation, M17 1% glucose, 24 h
Procedure: as §1

IL1403 = assay: as above; assay type: cell-based, L. lactis; details: strain IL1403, hemin 10 μg/ml and agitation, M17 1% glucose, 24 h
Procedure: as §1

Z191 = assay: as above; assay type: cell-based, L. lactis; details: strain Z191, hemin 10 μg/ml and agitation, M17 1% glucose, 24 h
Procedure: as §1

IL896 = assay: as above; assay type: cell-based, L. lactis; details: strain IL896, hemin 10 μg/ml and agitation, M17 1% glucose, 24 h
Procedure: as §1

MG1363 = assay: as above; assay type: cell-based, L. lactis; details: strain MG1363, hemin 10 μg/ml and agitation, M17 1% glucose, 24 h
Procedure: as §1

[1] = tested on: Lactococcus lactis subsp. cremoris strain MG1363; assay: Survival of the lactic acid bacteria during storage at 30° C. (Example 2); assay type: cell-based; details: for Number of viable cells: hemin 10 μg/ml and aeration, 1% glucose M17
Procedure: (§2) A laboratory medium, i.e. M17 supplemented with 1% of glucose, is inoculated with Lactococcus lactis subsp. cremoris strain MG1363 in the form of a 1/1000 dilution of a saturated culture. The cultures are then divided into two equal parts, and hemin is added to one of these two cultures to give a final concentration of 10 μg/ml. […] Aliquots of the two cultures are removed regularly during the exponential growth phase in order to monitor viability, rate of growth and pH. After 24 h of growth, the cultures are placed (stored) in a 30° C. incubator without shaking, and aliquots are removed every 24 h in order to monitor the viability of the cells.

Z106 = assay: Culture with hemin and agitation, different strains (Example 4); assay type: cell-based, L. lactis; details: strain Z106, hemin 10 μg/ml and agitation, M17 1% glucose, 24 h
Procedure: Bacteria [MG1363 and 7 strains (IL1403, IL582, IL801, IL896, Z105, Z106, Z191) representative of L. lactis subgroups [TAILLEZ et al., System. Appl. Microbiol., 21, 530-538, (1998)] are cultured in M17 medium (1% glucose) inoculated (1/1000 dilution) with a saturated starter culture previously grown at 30° C. for 24 h. Hemin at a final concentration of 10 μg/ml is added to the inoculated medium before aerating the cultures by shaking (minimum 220 rpm). Control cultures are grown in parallel with no hemin in the medium, and no shaking. After 24 h., aliquots are taken and OD600 and final pH are measured.

[2] = tested on: Lactococcus lactis subsp. cremoris strain MG1363; assay: Survival of the lactic acid bacteria during storage at 4° C. (Example 3); assay type: cell-based; details: for Number of cells per ml: porphyrin compound and aeration, 1% glucose M17, storage at 4° C.
Procedure: as §2, with “cells. The Lactococcus lactis subsp. cremoris strain MG1363 was cultured as in the experiment described in Example 2, but the storage, which is carried out 24 h after inoculation, is at 4° C. instead of at 30° C.” for “cells.”

IL801 = assay: Culture with hemin and agitation, different strains (Example 4); assay type: cell-based, L. lactis; details: strain IL801, hemin 10 μg/ml and agitation, M17 1% glucose, 24 h

## C=CC1=C(C)c2cc3[n-]c(cc4nc(cc5[n-]c(cc1n2)c(C)c5C=C)C(C)=C4CCC(=O)O)c(CCC(=O)O)c3C.[Cl-].[Fe+3] [hemin]
IL582; final pH
  pH: 5.73
IL582
  OD500 nm: 5.1
Z105; final pH
  pH: 5.67
Z105
  OD500 nm: 5
IL1403; final pH
  pH: 5.41
IL1403
  OD500 nm: 5.3
Z191; final pH
  pH: 5.36
Z191
  OD500 nm: 3.8
IL896; final pH
  pH: 5.24
IL896
  OD500 nm: 4.5
MG1363; final pH
  pH: 5.86
MG1363
  OD500 nm: 5
[1]; 2 days after inoculation, storage at 30° C., hemin and oxygen
  viability after one day of storage: do not lose any viability
[1]; after 5 days of storage at 30° C., grown with aeration and hemin
  rate of survival: approximately 10^−2
[1]; 0 days after inoculation
  Number of viable cells: 1 × 10^6
[1]; 1 day after inoculation
  Number of viable cells: 1.76 × 10^10
[1]; 2 days after inoculation, stored at 30° C.
  Number of viable cells: 1.71 × 10^10
[1]; 3 days after inoculation, stored at 30° C.
  Number of viable cells: 5.32 × 10^9
[1]; 5 days after inoculation, stored at 30° C.
  Number of viable cells: 4.3 × 10^8
[1]; 6 days after inoculation, stored at 30° C.
  Number of viable cells: 8.5 × 10^7
Z106; final pH
  pH: 5.74
Z106
  OD500 nm: 4.5
[2]; after 2 months at 4° C., cultured with porphyrin compound under aeration
  survival rate: ~5%
[2]; 0 days after culture
  Number of cells per ml: 4.3 × 10^9 cells per ml
[2]; 1 day after culture
  Number of cells per ml: 4.2 × 10^9 cells per ml
[2]; 2 days after culture
  Number of cells per ml: 3.8 × 10^9 cells per ml
[2]; 3 days after culture
  Number of cells per ml: 3.8 × 10^9 cells per ml
[2]; 7 days after culture
  Number of cells per ml: 4.2 × 10^9 cells per ml
[2]; 8 days after culture
  Number of cells per ml: 2.8 × 10^9 cells per ml
[2]; 9 days after culture
  Number of cells per ml: 2.2 × 10^9 cells per ml
[2]; 10 days after culture
  Number of cells per ml: 9.6 × 10^8 cells per ml
[2]; 13 days after culture
  Number of cells per ml: 5.0 × 10^8 cells per ml
[2]; 15 days after culture
  Number of cells per ml: 3.2 × 10^8 cells per ml
[2]; 22 days after culture
  Number of cells per ml: 3.0 × 10^8 cells per ml
[2]; 28 days after culture
  Number of cells per ml: 3.0 × 10^8 cells per ml
[2]; 36 days after culture
  Number of cells per ml: 2.9 × 10^8 cells per ml
[2]; 43 days after culture
  Number of cells per ml: 2.2 × 10^8 cells per ml
[2]; 50 days after culture
  Number of cells per ml: 1.8 × 10^8 cells per ml
[2]; 57 days after culture
  Number of cells per ml: 2.0 × 10^8 cells per ml
IL801; final pH
  pH: 5.44
IL801
  OD500 nm: 4.3
